This passage reports cell permeability, EC50 and Photoindex results from patent publication US20260055118A1, “VISIBLE LIGHT SENSITIVE PHOTOREMOVABLE PROTECTING GROUPS, PREPARATION PROCESS THEREOF, PHOTOACTIVATABLE CONJUGATES COMPRISING THEM AND USES THEREOF” (HUN-REN TERMÉSZETTUDOMÁNYI KUTATÓKÖZPONT, priority 2022, published 2026).

Where two headings read alike, the source gives them in different places.

For series [1], the system named is SK-OV-3 cells. As to the kind of experiment: Live cell confocal fluorescence imaging (cell permeability, colocalization). It counts as cell-based, human. To be noted: live SK-OV-3 cells, confocal microscopy. Here is the method: SKOV3 (ATCC HTB-77) cells were maintained in McCoy's 5A (Modified) Medium, HEPES (Gibco 22330021) media supplemented with 10% FBS (Gibco 10500-064), 1% penicillin-streptomycin (Gibco 15140-122). The cells were cultured at 37° C. in a 5% CO2 atmosphere and passaged—using trypsin (Gibco 25300-054)—every 3-4 days up to 20 passages.
SKOV3 ([…]) cells were transferred into μ-Slide 8 well plates (Ibidi 80827) and were incubated for 40 h at 37° C. in a 5% CO2 atmosphere. After 30 min treatment with compounds X1′-SN38 and X2′—SN38 in the concentration of 1 μM and in some cases in combination with 1 nM MitoTracker Deep Red FM (Invitrogen M22426) or 1 nM LysoTracker Deep red (Invitrogen L12492) or 50 nM MitoTracker Red FM (Invitrogen M22425) or 50 nM LysoTracker red DND-99 (Invitrogen L7528). The samples were subjected to microscopy analyses. […]
Due to their high fluorescence, the cell permeability of compounds X1′-SN38 and X2′-SN38 were tested in live SK—OV-3 (human ovarian carcinoma) cells using confocal microscopy. […] The decrease of fluorescence (related to the photolysis reaction) was only observed in the irradiated area. Overall, these experiments serve as evidence for the cell permeability, biocompatibility and excellent ability of this invention to determine the localization of the photoactivatable conjugates via fluorescence microscopy.

For series [2], the system named is SK-OV-3 cells. As to the kind of experiment: Cytotoxicity determination, MTT assay, with light irradiation and in the dark. It counts as cell-based, human. On the procedure:
A viability test was carried out to assess the toxicity of SN38 as well as the photoremovable protecting group-SN38 conjugates X1′-SN38 and X2′-SN38 after light irradiation and in the dark on SKOV3 cells. Cells were transferred into a 48-well plate (Thermo Fisher Scientific, 130187) (4,500 cells/well) and incubated for 20-24 h at 37° C. in a 5% CO2 atmosphere in McCoy's 5A (Modified) Medium, HEPES (Gibco 22330021) supplemented with 10% FBS (Gibco 10500-064), 1% penicillin-streptomycin (Gibco 15140-122). Cells were treated with compounds in the concentration range of 10^−11-10^−4 M for 90 min followed by light irradiation or kept in the dark at 37° C. in 5% CO2 atmosphere. After treatment and irradiation, cells were kept at 37° C. in 5% CO2 atmosphere for 72 hours. After the incubation period, supernatants were replaced with 0.5 mg/ml MTT (3-(4,5-dimethylthiazol-2-yl)-2,5-diphenyltetrazolium bromide; Sigma M5655-1G) solution (in complete DMEM: Dulbecco's modified Eagle's medium (DMEM, Gibco 41965-039), supplemented with 10% FBS (Gibco 10500-064), 1% penicillin-streptomycin (Gibco 15140-122), 1% Glutamax (Gibco 35050-061) and 1% sodium pyruvate (Life Technologies, Gibco 11360-070)) and incubated for 120 min at 37° C. in the dark. The insoluble formazan crystals were dissolved in 250 μl DMSO. Absorbance was detected at 540 nm using a Biotek Synergy 2 Cytation 3 imaging plate reader with Gen5 software version 3.08 (Biotek Winooski, VT, USA). Viability was expressed as percentage (n=3) of the readings of untreated control cells.
To determine phototoxic properties of compounds X1′-SN38 and X2′-SN38, standard MTT assays were performed on SK—OV-3 cells. To irradiate multiple specimens, an LED panel was custom-made for a 48-well plate consisting of 24 LEDs using green (4 W input power, λmax=549 nm half-width: 16 nm, output power: 72 mW), orange (4 W input power, λmax=605 nm half-width: 10 nm, output power: 140 mW) and red (4 W input power, λmax=658 nm half-width: 10 nm, for Q=CMe2 output power: 210 mW) LED irradiation. The board was specifically designed for the plates and offer water cooling to minimize heat shock to cells. Every second well can be irradiated with an individual LED. First, the cytotoxicity of the free active agent, SN38 was determined to be EC50 ^˜6 nM. Treatment of cells with the photoactivatable SN38 derivatives for 72 hours in the absence of light (without washing) produced moderate cytotoxic effects, sigificantly lowering the effectiveness of the active agent. This confirms that SN38 is a suitable candidate for light-activated prodrug applications. […] Reducing the irradiation time down to 10 s still produced significant phototoxicity in higher concentrations (see FIG. 8a for compound X2′-SN38) even assuming incomplete uncaging as a result of the substantial dark stability of compound X2′-SN38.
In general terms: Tetrazolium dyes change colour on reduction, which living cells bring about.

What is called EC50 is the concentration giving half of the maximal effect. Turning to `CCc1c2c(nc3ccc(OC(=O)N(C)CCN(C)C(=O)OC(C)c4c5ccc(=[N+]6CCCC6)cc-5oc5cc(N6CCCC6)ccc45)cc13)-c1cc3c(c(=O)n1C2)COC(=O)C3(O)CC.[I-]` (mixture of isomers) [X1′-SN38], the cell permeability result in the series on SK-OV-3 cells [1] is “cell permeable”. The EC50 with SK-OV-3 cells [2] (dark, (green) series, read-out: Dark EC50 values) worked out at 4000 nM; with SK-OV-3 cells [2] (dark, (orange) series, read-out: Dark EC50 values), 1100 nM; in the series on SK-OV-3 cells [2] (green light irradiation, 15 min, read-out: EC50 values after irradiation), 63 nM; in the series on SK-OV-3 cells [2] (orange light, 5 min, read-out: EC50 values after irradiation) it was 23 nM. The Photoindex with SK-OV-3 cells [2] (green light, 15 min) was determined as 64; in the series with SK-OV-3 cells [2] (orange light, 5 min), 45.
